ChEMBL document CHEMBL1909046, “DrugMatrix in vitro pharmacology data”

Assays:
[1] = target: Protein phosphatase 3 catalytic subunit alpha (Homo sapiens, UniProt Q08209); parameters: species or system Escherichia coli;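 also: inhibition of calcineurin (PP2B) enzyme activity, measured with DiFMUP as the substrate; in other assays of this panel Not Active means under 50% inhibition at 10 µM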
[2] = DRUGMATRIX: Calcium Channel Type L, Benzothiazepine radioligand binding (ligand: [3H] Diltiazem); assay type: cell membranes, Rattus norvegicus, Wistar, Brain, Membrane; details: Not Active = under 50% inhibition at 10 µM
[3] = target: T1, Angiotensin-converting enzyme (Oryctolagus cuniculus, UniProt P12822); assay type: tissue-based, Lung;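 also: enzymatic inhibition of angiotensin-converting enzyme measured with FAPGG as the substrate; in other assays of this panel Not Active means under 50% inhibition at 10 µM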
T1 sequence (P12822 whole entry): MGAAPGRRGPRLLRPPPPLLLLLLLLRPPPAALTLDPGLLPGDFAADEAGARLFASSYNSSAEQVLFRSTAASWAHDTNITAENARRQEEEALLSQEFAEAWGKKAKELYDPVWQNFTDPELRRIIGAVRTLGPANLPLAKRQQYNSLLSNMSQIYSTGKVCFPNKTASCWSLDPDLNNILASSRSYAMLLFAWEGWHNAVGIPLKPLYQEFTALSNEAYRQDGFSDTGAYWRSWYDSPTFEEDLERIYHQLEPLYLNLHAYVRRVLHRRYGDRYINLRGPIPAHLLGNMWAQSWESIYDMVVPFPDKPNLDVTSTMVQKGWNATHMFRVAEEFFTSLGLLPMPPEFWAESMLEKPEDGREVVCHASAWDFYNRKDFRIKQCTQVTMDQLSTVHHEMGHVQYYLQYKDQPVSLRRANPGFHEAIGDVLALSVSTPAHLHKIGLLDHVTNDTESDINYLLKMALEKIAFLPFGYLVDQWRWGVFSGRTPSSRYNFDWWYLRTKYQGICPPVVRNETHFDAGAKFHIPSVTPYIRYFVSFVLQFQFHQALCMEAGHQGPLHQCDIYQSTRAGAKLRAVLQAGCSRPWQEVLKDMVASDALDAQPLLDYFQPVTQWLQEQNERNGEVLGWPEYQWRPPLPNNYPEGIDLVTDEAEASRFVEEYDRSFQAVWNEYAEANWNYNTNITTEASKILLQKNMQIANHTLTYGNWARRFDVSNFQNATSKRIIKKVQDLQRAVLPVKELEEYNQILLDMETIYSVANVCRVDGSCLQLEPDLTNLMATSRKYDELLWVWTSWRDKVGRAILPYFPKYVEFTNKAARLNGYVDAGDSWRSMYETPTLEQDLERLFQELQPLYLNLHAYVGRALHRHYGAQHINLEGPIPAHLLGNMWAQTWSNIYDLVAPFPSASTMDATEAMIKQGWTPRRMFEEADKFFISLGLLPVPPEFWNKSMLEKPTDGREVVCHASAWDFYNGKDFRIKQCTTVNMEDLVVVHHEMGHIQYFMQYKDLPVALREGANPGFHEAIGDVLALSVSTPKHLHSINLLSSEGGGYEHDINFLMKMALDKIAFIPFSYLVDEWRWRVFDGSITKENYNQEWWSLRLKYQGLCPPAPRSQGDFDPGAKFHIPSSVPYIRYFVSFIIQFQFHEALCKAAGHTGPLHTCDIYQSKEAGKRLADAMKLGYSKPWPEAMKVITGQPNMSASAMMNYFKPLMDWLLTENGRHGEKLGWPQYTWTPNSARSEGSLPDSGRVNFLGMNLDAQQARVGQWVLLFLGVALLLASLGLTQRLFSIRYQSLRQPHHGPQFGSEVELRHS

Melanocortin receptor 4 = Melanocortin receptor 4 (Homo sapiens, UniProt P32245); assay type: cell membranes, Membrane; details: hek293; also: in other assays of this panel Not Active means under 50% inhibition at 10 µM
Chain of Melanocortin receptor 4 (P32245 whole entry): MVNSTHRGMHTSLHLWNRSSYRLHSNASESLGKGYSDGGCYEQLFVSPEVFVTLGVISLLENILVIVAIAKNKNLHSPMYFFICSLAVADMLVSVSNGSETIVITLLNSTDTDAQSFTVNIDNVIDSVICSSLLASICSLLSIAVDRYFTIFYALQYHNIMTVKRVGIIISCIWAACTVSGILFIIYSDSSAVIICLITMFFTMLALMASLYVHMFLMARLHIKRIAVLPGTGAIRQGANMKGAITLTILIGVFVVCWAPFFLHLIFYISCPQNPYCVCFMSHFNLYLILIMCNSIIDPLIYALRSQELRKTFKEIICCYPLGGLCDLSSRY

[4] = target: Aldo-keto reductase family 1 member B1 (Rattus norvegicus, UniProt P07943); assay: biochemical; assay type: tissue-based, Lens of camera-type eye;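 also: inhibition of aldose reductase enzyme activity, measured with DL-glyceraldehyde as the substrate; in other assays of this panel Not Active means under 50% inhibition at 10 µM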
[5] = target: T2, Receptor-type tyrosine-protein phosphatase C (Homo sapiens, UniProt P08575); parameters: species or system Escherichia coli
T2 sequence (P08575 whole entry): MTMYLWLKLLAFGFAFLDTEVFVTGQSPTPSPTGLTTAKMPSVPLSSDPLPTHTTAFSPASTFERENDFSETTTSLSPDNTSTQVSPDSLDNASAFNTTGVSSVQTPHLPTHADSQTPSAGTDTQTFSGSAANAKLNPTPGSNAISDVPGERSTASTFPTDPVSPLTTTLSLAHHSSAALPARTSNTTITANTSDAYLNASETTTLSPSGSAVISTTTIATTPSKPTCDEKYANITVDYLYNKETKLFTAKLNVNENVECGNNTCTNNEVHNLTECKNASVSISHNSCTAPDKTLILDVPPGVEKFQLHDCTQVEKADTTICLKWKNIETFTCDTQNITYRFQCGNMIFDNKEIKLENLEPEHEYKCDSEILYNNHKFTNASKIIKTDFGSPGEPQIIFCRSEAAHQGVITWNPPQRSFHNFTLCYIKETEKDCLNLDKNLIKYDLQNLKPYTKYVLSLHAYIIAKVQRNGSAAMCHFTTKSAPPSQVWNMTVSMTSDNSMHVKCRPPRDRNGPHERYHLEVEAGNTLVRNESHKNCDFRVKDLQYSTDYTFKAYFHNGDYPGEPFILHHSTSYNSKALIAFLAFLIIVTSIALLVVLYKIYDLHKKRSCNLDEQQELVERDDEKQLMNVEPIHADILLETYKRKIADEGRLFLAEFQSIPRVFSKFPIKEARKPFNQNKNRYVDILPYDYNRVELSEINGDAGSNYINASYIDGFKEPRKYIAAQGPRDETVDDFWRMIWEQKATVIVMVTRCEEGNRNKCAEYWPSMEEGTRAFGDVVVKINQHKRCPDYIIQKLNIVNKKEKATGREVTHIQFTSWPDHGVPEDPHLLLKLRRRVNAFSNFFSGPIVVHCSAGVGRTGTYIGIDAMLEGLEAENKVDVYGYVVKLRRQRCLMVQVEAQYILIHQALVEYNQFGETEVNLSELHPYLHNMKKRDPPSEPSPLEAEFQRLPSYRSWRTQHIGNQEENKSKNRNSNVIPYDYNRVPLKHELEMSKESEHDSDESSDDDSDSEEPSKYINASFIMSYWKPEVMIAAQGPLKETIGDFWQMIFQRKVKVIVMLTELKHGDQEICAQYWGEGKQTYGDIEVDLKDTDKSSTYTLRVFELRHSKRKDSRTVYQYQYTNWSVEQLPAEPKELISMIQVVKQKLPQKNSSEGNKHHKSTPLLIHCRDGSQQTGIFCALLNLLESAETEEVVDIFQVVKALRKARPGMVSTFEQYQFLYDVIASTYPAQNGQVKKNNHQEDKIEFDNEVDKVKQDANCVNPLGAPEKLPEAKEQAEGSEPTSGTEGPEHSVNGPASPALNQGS

[6] = DRUGMATRIX: Purinergic P2X radioligand binding (ligand: [3H] alpha, beta-Methylene-ATP); assay type: cell membranes, Oryctolagus cuniculus, New Zealand albino, Urinary bladder, Membrane; details: Not Active = under 50% inhibition at 10 µM

CCCCN1CCCCC1C(=O)Nc1c(C)cccc1C.Cl (configuration not stated) [BUPIVACAINE HYDROCHLORIDE]
Not Active: IC50 [1] | IC50 [2] | Ki [2] | IC50 [3] | IC50 (Melanocortin receptor 4) | IC50 [4] | IC50 [5] | IC50 [6] | Ki [6]

O=C1CC2(CCCC2)CC(=O)N1CCCCN1CCN(c2ncccn2)CC1 [BUSPIRONE]
Not Active: IC50 [1] | IC50 [2] | Ki [2] | IC50 [3] | IC50 (Melanocortin receptor 4) | IC50 [4] | IC50 [5] | IC50 [6] | Ki [6]

C[C@@]12C(=O)OC(=O)[C@]1(C)[C@H]1CC[C@@H]2O1 [CANTHARIDIN]
Not Active: IC50 [1] | IC50 [2] | Ki [2] | IC50 [3] | IC50 (Melanocortin receptor 4) | IC50 [4] | IC50 [5] | IC50 [6] | Ki [6]

O=NN(CCCl)C(=O)NCCCl [CARMUSTINE]
Not Active: IC50 [1] | IC50 [2] | Ki [2] | IC50 [3] | IC50 (Melanocortin receptor 4) | IC50 [4] | IC50 [5] | IC50 [6] | Ki [6]

CC1=C(C(=O)O)N2C(=O)[C@@H](NC(=O)[C@H](N)c3ccccc3)[C@H]2SC1 [CEPHALEXIN ANHYDROUS]
Not Active: IC50 [1] | IC50 [2] | Ki [2] | IC50 [3] | IC50 (Melanocortin receptor 4) | IC50 [4] | IC50 [5] | IC50 [6] | Ki [6]

O=C(N[C@H](CO)[C@H](O)c1ccc([N+](=O)[O-])cc1)C(Cl)Cl [CHLORAMPHENICOL]
Not Active: IC50 [1] | IC50 [2] | Ki [2] | IC50 [3] | IC50 (Melanocortin receptor 4) | IC50 [4] | IC50 [5] | IC50 [6] | Ki [6]

ClC(Cl)Cl [CHLOROFORM]
Not Active: IC50 [1] | IC50 [2] | Ki [2] | IC50 [3] | IC50 (Melanocortin receptor 4) | IC50 [4] | IC50 [5] | IC50 [6] | Ki [6]

C=C1CC[C@H](O)C/C1=C/C=C1\CCC[C@]2(C)[C@@H]([C@H](C)CCCC(C)C)CC[C@@H]12 [CHOLECALCIFEROL]
Not Active: IC50 [1] | IC50 [2] | Ki [2] | IC50 [3] | IC50 (Melanocortin receptor 4) | IC50 [4] | IC50 [5] | IC50 [6] | Ki [6]

C[N+](C)(C)CCO.[Cl-] [CHOLINE CHLORIDE]
Not Active: IC50 [1] | IC50 [2] | Ki [2] | IC50 [3] | IC50 (Melanocortin receptor 4) | IC50 [4] | IC50 [5] | IC50 [6] | Ki [6]

CCOC(=O)C(C)(C)Oc1ccc(Cl)cc1 [CLOFIBRATE]
Not Active: IC50 [1] | IC50 [2] | Ki [2] | IC50 [3] | IC50 (Melanocortin receptor 4) | IC50 [4] | IC50 [5] | IC50 [6] | Ki [6]

CC(=O)OCC(=O)[C@@]1(O)CC[C@H]2[C@@H]3CCC4=CC(=O)CC[C@]4(C)[C@H]3C(=O)C[C@@]21C [CORTISONE ACETATE]
Not Active: IC50 [1] | IC50 [2] | Ki [2] | IC50 [3] | IC50 (Melanocortin receptor 4) | IC50 [4] | IC50 [5] | IC50 [6] | Ki [6]

O=c1ccc2ccccc2o1 [COUMARIN]
Not Active: IC50 [1] | IC50 [2] | Ki [2] | IC50 [3] | IC50 (Melanocortin receptor 4) | IC50 [4] | IC50 [5] | IC50 [6] | Ki [6]

C[C@@H]1C[C@@H]([C@H](O)CC2CC(=O)NC(=O)C2)C(=O)[C@@H](C)C1 [CYCLOHEXIMIDE]
Not Active: IC50 [1] | IC50 [2] | Ki [2] | IC50 [3] | IC50 (Melanocortin receptor 4) | IC50 [4] | IC50 [5] | IC50 [6] | Ki [6]

CN(C)/N=N/c1[nH]cnc1C(N)=O [DACARBAZINE]
Not Active: IC50 [1] | IC50 [2] | Ki [2] | IC50 [3] | IC50 (Melanocortin receptor 4) | IC50 [4] | IC50 [5] | IC50 [6] | Ki [6]

COc1ccc2c(c1)[C@]13CCCC[C@@H]1[C@H](C2)N(C)CC3 [DEXTROMETHORPHAN]
Not Active: IC50 [1] | IC50 [2] | Ki [2] | IC50 [3] | IC50 (Melanocortin receptor 4) | IC50 [4] | IC50 [5] | IC50 [6] | Ki [6]

CC(=O)Nc1c(I)c(NC(C)=O)c(I)c(C(=O)O)c1I [DIATRIZOIC ACID]
Not Active: IC50 [1] | IC50 [2] | Ki [2] | IC50 [3] | IC50 (Melanocortin receptor 4) | IC50 [4] | IC50 [5] | IC50 [6] | Ki [6]

COP(=O)(OC)OC=C(Cl)Cl [DICHLORVOS]
Not Active: IC50 [1] | IC50 [2] | Ki [2] | IC50 [3] | IC50 (Melanocortin receptor 4) | IC50 [4] | IC50 [5] | IC50 [6] | Ki [6]

O=C(O)Cc1ccccc1Nc1c(Cl)cccc1Cl [DICLOFENAC]
Not Active: IC50 [1] | IC50 [2] | Ki [2] | IC50 [3] | IC50 (Melanocortin receptor 4) | IC50 [4] | IC50 [5] | IC50 [6] | Ki [6]
